Measured values reported in ChEMBL document CHEMBL5634137, “2,4-Diacetylphloroglucinol (DAPG) derivatives rapidly eradicate methicillin-resistant staphylococcus aureus without resistance development by disrupting membrane” (Eur J Med Chem, 2023).
Converted amounts (≈) assume the structure as drawn.

Columns and labels:
[1] = test system: Klebsiella pneumoniae; test: Antibacterial activity against Klebsiella pneumoniae […] assessed as inhibition of bacterial growth incubated for 24 hrs by broth dilution method; type: functional
[2] = test system: Staphylococcus aureus; test: Antibacterial activity against Methicillin-resistant Staphylococcus aureus USA300 assessed as inhibition of bacterial growth incubated for 24 hrs by broth dilution method; type: functional
[3] = test system: Staphylococcus aureus; test: Bactericidal against methicillin-resistant Staphylococcus aureus ATCC 4330 assessed as inhibition of bacterial growth incubated for 24 hrs by broth dilution method; type: functional
[4] = test system: Staphylococcus aureus; test: Antibacterial activity against methicillin-resistant Staphylococcus aureus ATCC 4330 assessed as inhibition of bacterial growth incubated for 24 hrs by broth dilution method; type: functional
[5] = test system: Escherichia coli; test: Antibacterial activity against Escherichia coli ATCC 11775 assessed as inhibition of bacterial growth incubated for 24 hrs by broth dilution method; type: functional
[6] = test system: Staphylococcus aureus; test: Bactericidal activity against methicillin-resistant Staphylococcus aureus ATCC 3392 assessed as inhibition of bacterial growth incubated for 24 hrs by broth dilution method; type: functional
[7] = test system: Staphylococcus aureus; test: Antibacterial activity against methicillin-resistant Staphylococcus aureus ATCC 3392 assessed as inhibition of bacterial growth incubated for 24 hrs by broth dilution method; type: functional
[8] = test system: Pseudomonas aeruginosa; test: Antibacterial activity against Pseudomonas aeruginosa […] assessed as inhibition of bacterial growth incubated for 24 hrs by broth dilution method; type: functional
[9] = test system: Staphylococcus aureus; test: Selectivity index, ratio of MBC for bactericidal against methicillin-resistant Staphylococcus aureus ATCC 3392 to MIC for antibacterial activity against methicillin-resistant Staphylococcus aureus ATCC 3392; type: functional
[10] = test system: Staphylococcus aureus; test: Selectivity index, ratio of MBC for bactericidal against methicillin-resistant Staphylococcus aureus ATCC 4330 to MIC for antibacterial activity against methicillin-resistant Staphylococcus aureus ATCC 4330; type: functional
[11] = Cytotoxicity against human L02 cells assessed as survival rate incubated for 24 hrs by MTT assay; type: toxicity, cell-based; set-up: concentration or dose not given beside the values; details: read-out: Survival
[12] = Cytotoxicity against mouse RAW264.7 cells assessed as survival rate incubated for 24 hrs by MTT assay; type: toxicity, cell-based; set-up: concentration or dose not given beside the values; details: read-out: Survival

SMILES	MIC [1] [µg/mL]	MIC [2] [µg/mL]	MBC [3] [µg/mL]	MIC [4] [µg/mL]	MIC [5] [µg/mL]	MBC [6] [µg/mL]	MIC [7] [µg/mL]	MIC [8] [µg/mL]	Selectivity Index [9]	Selectivity Index [10]	viability at 24 h [11] [%]	viability at 24 h [12] [%]
CC(C)(C)CC(=O)c1c(O)cc(O)c(C(=O)CC(C)(C)C)c1O	> 64	0.5 (≈ 1.55 µM)	4 (≈ 12.4 µM)	0.5 (≈ 1.55 µM)	> 64	4 (≈ 12.4 µM)	0.5 (≈ 1.55 µM)	> 64	8	8	–	–
O=C(c1c(O)cc(O)c(C(=O)C2CCC2)c1O)C1CCC1	> 64	1 (≈ 3.44 µM)	4 (≈ 13.8 µM)	2 (≈ 6.89 µM)	64 (≈ 220 µM)	8 (≈ 27.6 µM)	2 (≈ 6.89 µM)	> 64	4	2	–	–
O=C(Cc1ccccc1)c1c(O)cc(O)c(C(=O)Cc2ccccc2)c1O	> 64	1 (≈ 2.76 µM)	8 (≈ 22.1 µM)	0.5 (≈ 1.38 µM)	64 (≈ 177 µM)	8 (≈ 22.1 µM)	1 (≈ 2.76 µM)	> 64	8	–	–	–
O=C(c1c(O)cc(O)c(C(=O)C2CCCC2)c1O)C1CCCC1	> 64	0.5 (≈ 1.57 µM)	4 (≈ 12.6 µM)	1 (≈ 3.14 µM)	64 (≈ 201 µM)	4 (≈ 12.6 µM)	1 (≈ 3.14 µM)	> 64	4	4	75	76
CCCCC(=O)c1c(O)cc(O)c(C(=O)C(C)C)c1O	> 64	1 (≈ 3.57 µM)	8 (≈ 28.5 µM)	2 (≈ 7.13 µM)	> 64	8 (≈ 28.5 µM)	2 (≈ 7.13 µM)	> 64	4	4	75	76
CC(=O)c1c(O)cc(O)c(C(C)=O)c1O	> 64	8 (≈ 38.1 µM)	32 (≈ 152 µM)	8 (≈ 38.1 µM)	> 64	64 (≈ 304 µM)	4 (≈ 19 µM)	> 64	16	4	–	–
O=C(c1c(O)cc(O)c(C(=O)C2CCCCC2)c1O)C1CCCCC1	> 64	0.5 (≈ 1.44 µM)	8 (≈ 23.1 µM)	1 (≈ 2.89 µM)	> 64	2 (≈ 5.77 µM)	0.5 (≈ 1.44 µM)	> 64	4	8	–	–
CCCCCC(=O)c1c(O)cc(O)c(C(=O)CCCCC)c1O	> 64	0.5 (≈ 1.55 µM)	2 (≈ 6.2 µM)	0.5 (≈ 1.55 µM)	> 64	2 (≈ 6.2 µM)	0.5 (≈ 1.55 µM)	> 64	4	4	–	–
CCCCCCCC(=O)c1c(O)cc(O)c(C(=O)CCCCCCC)c1O	> 64	2 (≈ 5.28 µM)	1 (≈ 2.64 µM)	1 (≈ 2.64 µM)	> 64	2 (≈ 5.28 µM)	2 (≈ 5.28 µM)	> 64	1	1	–	–
CCCCC(=O)c1c(O)cc(O)c(C(=O)CC(C)(C)C)c1O	> 64	0.5 (≈ 1.62 µM)	4 (≈ 13 µM)	0.5 (≈ 1.62 µM)	> 64	4 (≈ 13 µM)	0.5 (≈ 1.62 µM)	> 64	–	8	75	76
CCCCC(=O)c1c(O)cc(O)c(C(=O)CCCC)c1O	> 64	0.5 (≈ 1.7 µM)	2 (≈ 6.79 µM)	2 (≈ 6.79 µM)	64 (≈ 217 µM)	4 (≈ 13.6 µM)	2 (≈ 6.79 µM)	> 64	–	–	–	–
CC(C)CCC(=O)c1c(O)cc(O)c(C(=O)CCC(C)C)c1O	> 64	0.5 (≈ 1.55 µM)	2 (≈ 6.2 µM)	0.5 (≈ 1.55 µM)	> 64	2 (≈ 6.2 µM)	0.5 (≈ 1.55 µM)	> 64	4	4	–	–
